The values that follow come from patent US9199939B2, “Quinoline amide M1 receptor positive allosteric modulators” (Merck Sharp & Dohme Corp., priority 2009, dated 2015).

The assay deals with T1, acetylcholine muscarinic M1 receptor (Homo sapiens, UniProt P11229).
T1 construct: expressed in transfected cells; host or cells: CHOnfat (CHO cells; also called CHOK1/hM1)
T1 sequence (P11229 1-460): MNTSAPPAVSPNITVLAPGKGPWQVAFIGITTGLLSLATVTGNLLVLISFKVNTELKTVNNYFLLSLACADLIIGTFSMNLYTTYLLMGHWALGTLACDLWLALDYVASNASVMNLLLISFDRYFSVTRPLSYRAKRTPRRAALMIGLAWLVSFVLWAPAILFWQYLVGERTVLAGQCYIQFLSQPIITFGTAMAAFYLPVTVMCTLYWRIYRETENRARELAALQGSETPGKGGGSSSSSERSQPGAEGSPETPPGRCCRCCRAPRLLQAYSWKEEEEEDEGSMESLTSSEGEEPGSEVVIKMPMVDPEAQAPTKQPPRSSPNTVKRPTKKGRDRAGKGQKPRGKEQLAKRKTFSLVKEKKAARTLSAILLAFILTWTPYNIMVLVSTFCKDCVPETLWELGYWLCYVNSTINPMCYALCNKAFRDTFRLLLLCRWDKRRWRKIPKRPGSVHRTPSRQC
As to the kind of experiment: Muscarinic M1 FLIPR intracellular calcium assay for positive allosteric modulators. The format is cell-based. The note with it: IP = inflection point calculated from FLIPR values; CHOnfat/hM1 cells; 4 min preincubation, then EC20 acetylcholine (3 nM final); read-out: IP Value. The method, then:
The assay studies the effect of one or several concentrations of test compounds on basal or acetylcholine-stimulated Ca^2+ levels using FLIPR.
Compounds are prepared and subjected to a preincubation period of 4 min. Thereafter, a single EC20 concentration of acetylcholine is added to each well (3 nM final). The intracellular Ca^2+ level of each sample is measured and compared to an acetylcholine control to determine any modulatory activity.
Cells: CHOnfat/hM1, hM2, hM3 or hM4 cells are plated 24 hr before the assay at a density of 18,000 cells/well (100 μL) in a 384 well plate. CHOnfat/hM1 and CHOnfat/hM3 Growth Medium: 90% DMEM (Hi Glucose); 10% HI FBS; 2 mM L-glutamine; 0.1 mM NEAA; Pen-Strep; and 1 mg/ml Geneticin, are added. For M2Gqi5CHOnfat and M4Gqi5CHOnfat cells, an additional 600 ug/ml hygromycin is added.
Equipment: 384 well plate, 120 μL addition plate; 96-well Whatman 2 ml Uniplate Incubator, 37° C., 5% CO2; Skatron EMBLA-384 Plate Washer; Multimek Pipetting System; Genesis Freedom 200 System; Mosquito System; Temo Nanolitre Pipetting System; and FLIPR^384 Fluorometric Imaging Plate Reader System are used.
Buffers. Assay Buffer: Hanks Balanced Salt Solution, with 20 mM Hepes, 2.5 mM Probenecid (Sigma P-8761) first dissolved in 1 N NaOH, 1% Bovine Serum Albumin (Sigma A-9647). Dye Loading Buffer: Assay Buffer plus 1% Fetal Bovine Serum and Fluo-4AM/Pluronic Acid Mixture. 2 mM Fluo-4AM ester stock in DMSO (Molecular Probes F-14202) Concentration of 2 μM in buffer for a final concentration of 1 μM in Assay. 20% Pluronic Acid Solution stock, with concentration of 0.04% in Buffer, 0.02% in Assay.
65 μL of 2 mM Fluo-4AM are mixed with 130 μL of 20% Pluronic Acid. The resulting solution and 650 μL FBS is added to the assay buffer for a total volume of 65 mL. Positive Controls: 4-Br-A23187: 10 mM in DMSO; final concentration 10 μM. Acetylcholine: 10 mM in water, working stock at both 20 μM and 30 μM in assay buffer, final concentration of 10 μM. This is used to check the maximum stimulation of the CHOK1/hM1 cells. 20 μM (2×) acetylcholine is added in the preincubation part of the assay, and the 30 μM (3×) stock is added in the second part. (EC20)Acetylcholine: 10 mM in water, working stock of 9 nM (3×), and final concentration in assay is 3 nM. This is used after the preincubation with test compounds. Addition of the EC20 Acetylcholine to each well with a test compound will ascertain any modulator activity. 24 wells contain 3 nM Acetylcholine alone as a control.
Determining Activity of Putative Compounds:
Screening Plate Compounds are titrated in 96-well plates (columns 2-11), 100% DMSO, started at a concentration of 15 mM (150× stock concentration), and 3-fold serial dilutions using Genesis Freedom200 System. Four 96-well plates are combined into a 384-well plate using Mosquito Nanolitre Pipetting System by transferring 1 μl of serial diluted compounds to each well, and 1 mM acetylcholine (100× stock concentration) were added as a control. Using Temo, 49 μl assay buffer is added to each well of the 384-well plate right before assay.
In a 96-well Whatman 2 ml Uniplate, 9 nM Acetylcholine (3×) is pipetted into wells corresponding to the screening compounds, and into control wells. The 30 μM acetylcholine control (3×) is added into control wells, and the 3× agonist plate is transferred into a 384 well plate.
Cells are washed three times with 100 μL of buffer, leaving 30 μL of buffer in each well. Using Multimek, 30 μL of Dye Loading Buffer is added into each well and incubated at 37° C., 5% CO2 for up to one hr.
After 60 min, the cells are washed three times with 100 μL of buffer, leaving 30 μL of buffer in each well. The cell plate, screening plate, and agonist addition plates are placed on the platform in the FLIPR and the door closed. A signal test to check background fluorescence and basal fluorescence signal is performed. Laser intensity is adjusted if necessary. […]
`O=C(N[C@H]1CCCC[C@@H]1O)c1cc(Cc2ccc(Cl)nc2)c2ccccc2n1` [Example 1, 4-[(6-Chloropyridin-3-yl)methyl]-N-[(1S,2S)-2-hydroxycyclohexyl]quinoline-2-carboxamide]: the EC50 was 41 nM.

Turning to `Cc1ccc(Cc2cc(C(=O)N[C@H]3CCCC[C@@H]3O)nc3ccccc23)cn1` [Example 2, N-[(1S,2S)-2-Hydroxycyclohexyl]-4-[(6-methylpyridin-3-yl)methyl]quinoline-2-carboxamide], the EC50 is 143 nM.

As for `O=C(N[C@H]1CCCC[C@@H]1O)c1cc(Cc2ccc(Cl)nc2)c2ccccc2[n+]1[O-]` [Example 3, 4-[(6-Chloropyridin-3-yl)methyl]-N-[(1S,2S)-2-hydroxycyclohexyl]quinoline-2-carboxamide 1-oxide], the EC50 was 148 nM.

Take `O=C(N[C@H]1CCCC[C@@H]1O)c1cc(Cc2ccc(C3CC3)nc2)c2ccccc2n1` [Example 4, 4-[(6-Cyclopropylpyridin-3-yl)methyl]-N-[(1,2)-2-hydroxycyclohexyl]quinoline-2-carboxamide]: the EC50 was 39 nM.

For the molecule `Cn1cc(-c2ccc(Cc3cc(C(=O)N[C@H]4CCCC[C@@H]4O)nc4ccccc34)cn2)cn1` [Example 5, N-[(1S,2S)-2-Hydroxycyclohexyl]-4-{[6-(1-methyl-1H-pyrazol-4-yl)pyridin-3-yl]methyl}quinoline-2-carboxamide], the EC50 is 6 nM.

`O=C(N[C@H]1CCCC[C@@H]1O)c1cc(Cc2cccnc2)c2ccccc2n1` [Example 6, N-[(1S,2S)-2-Hydroxycyclohexyl]-4-(pyridin-3-ylmethyl)quinoline-2-carboxamide]: the EC50 was 81 nM.

For the molecule `CSc1ccc(Cc2cc(C(=O)N[C@H]3CCCC[C@@H]3O)nc3ccccc23)cn1` [Example 7, N-[(1S,2S)-2-Hydroxycyclohexyl]-4-{[6-(inethylsulfanyl)pyridin-3-yl]methyl}quinoline-2-carboxamide], the EC50 is 37 nM.

Turning to `Cn1cc(-c2ccc(Cc3cc(C(=O)N[C@H]4CCCC[C@@H]4O)nc4ccccc34)c[n+]2[O-])cn1` [Example 8, N-[(1S,2S)-2-Hydroxycyclohexyl]-4-{[6-(1-methyl-1H-pyrazol-4-yl)-1-oxidopyridin-3-yl]methyl}quinoline-2-carboxamide], the EC50 is 21 nM.

For `Cn1cc(-c2ccc(Cc3cc(C(=O)N[C@H]4CCCC[C@@H]4F)nc4ccccc34)cn2)cn1` [Example 9, N-[(1S,2S)-2-Fluorocyclohexyl]-4-{[6-(1-methyl-1H-pyrazol-4-yl)pyridin-3-yl]methyl}quinoline-2-carboxamide], the EC50 is 261 nM.

As for `Cn1cc(-c2ccc(Cc3cc(C(=O)N[C@H]4COCC[C@@H]4O)nc4ccccc34)cn2)cn1` [Example 10, N-[(3S,4S)-4-Hydroxytetrahydro-2H-pyran-3-yl]-4-{[6-(1-methyl-1H-pyrazol-4-yl)pyridin-3-yl]methyl}quinoline-2-carboxamide], the EC50 is 17 nM.

For the molecule `COc1ccc(Cc2cc(C(=O)N[C@H]3CCOC[C@@H]3O)nc3ccccc23)cn1` [Example 11, N-[(3R,4S)-3-Hydroxytetrahydro-2H-pyran-4-yl]-4-[(6-methoxypyridin-3-yl)methyl]quinoline-2-carboxamide], the EC50 was 52 nM.

As for `CCOc1ccc(Cc2cc(C(=O)N[C@H]3CCOC[C@@H]3O)nc3ccccc23)cn1` [Example 12, 4-[(6-Ethoxypyridin-3-yl)methyl]-N-[(3R,4S)-3-hydroxytetrahydro-2H-pyran-4-yl]quinoline-2-carboxamide], the EC50 is 60 nM.

Turning to `COc1cc(Cc2cc(C(=O)N[C@H]3CCOC[C@@H]3O)nc3ccccc23)ccn1` [Example 13, N-[(3R,4S)-3-Hydroxytetrahydro-2H-pyran-4-yl]-4-[(2-methoxypyridin-4-yl)methyl]quinoline-2-carboxamide], the EC50 is 46 nM.

For the molecule `CSc1ncc(Cc2cc(C(=O)N[C@H]3CCOC[C@@H]3O)nc3ccccc23)cn1` [Example 14, N-[(3R,4S)-3-Hydroxytetrahydro-2H-pyran-4-yl]-4-{[2-(methylsulfanyl)pyrimidin-5-yl]methyl}quinoline-2-carboxamide], the EC50 was 316 nM.
